Source: ChEMBL document CHEMBL1938373, “Structure-based design, synthesis and biological evaluation of N-pyrazole, N'-thiazole urea inhibitors of MAP kinase p38α” (Eur J Med Chem, 2012)
pIC50, pKd: −log10 of the molar value. Activity calls are given as the source filed them. No cut-off for these calls is given here.

Key:
[1] = target: T1, Mitogen-activated protein kinase 14 (Homo sapiens, UniProt Q16539); assay: Binding affinity to N-terminus His-tagged human p38alpha expressed in Escherichia coli BL21 DE3 at 1 nM to 10 uM after 5 hrs by fluorescence analysis
T1 sequence (Q16539 whole entry): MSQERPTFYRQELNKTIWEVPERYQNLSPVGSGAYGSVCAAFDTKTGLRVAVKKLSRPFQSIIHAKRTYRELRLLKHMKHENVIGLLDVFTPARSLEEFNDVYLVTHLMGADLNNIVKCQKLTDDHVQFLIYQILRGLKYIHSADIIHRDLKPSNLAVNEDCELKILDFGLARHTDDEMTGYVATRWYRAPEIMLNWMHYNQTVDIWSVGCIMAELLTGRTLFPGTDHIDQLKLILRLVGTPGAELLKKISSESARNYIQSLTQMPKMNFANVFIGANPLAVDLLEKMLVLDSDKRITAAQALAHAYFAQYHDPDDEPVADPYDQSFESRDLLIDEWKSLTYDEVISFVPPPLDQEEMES

[2] = Solubility of the compound; assay type: physicochemical
[3] = target: T1, Mitogen-activated protein kinase 14
[4] = target: T1, Mitogen-activated protein kinase 14; assay: Inhibition of N-terminus His-tagged human p38alpha expressed in Escherichia coli BL21 DE3 using GST-tagged ATF2 as substrate after 90 mins by HTRF assay
[5] = target: T1, Mitogen-activated protein kinase 14; assay: Inhibition of p38alpha-mediated MK2 phosphorylation in anisomysin-stimulated human HeLa cells at 0.5 to 50 uM after 2 hrs by immunoblot analysis; assay type: cell-based
[6] = target: T1, Mitogen-activated protein kinase 14; assay: Inhibition of p38alpha-mediated MK2 phosphorylation in anisomysin-stimulated human HeLa cells after 2 hrs by immunoblot analysis

O=C(Nc1nc(CCOCc2ccccc2)cs1)c1cc(F)cc(N2CCOCC2)c1
Activity [1]: inactive

O=C(Nc1ccc(Cl)c(C(F)(F)F)c1)Nc1nc(CCOCc2ccccc2)cs1
solubility [2]: Insoluble

CC(C)(C)c1cc(NC(=O)Nc2nc(CCOCc3ccccc3)cs2)n(-c2ccc(CC(=O)O)cc2)n1
pKd [3]: 6.54

Cc1ccc(-n2nc(C(C)(C)C)cc2NC(=O)Nc2nc(CCOCc3ccncc3)cs2)cc1
pKd [3]: 6.23

CC(C)(C)c1cc(NC(=O)Nc2nccs2)n(-c2ccc(CC(=O)O)cc2)n1
pKd [3]: 6.71 | pIC50 [4]: 6.87 | inhibition [5]: inactive

NC(COCc1ccccc1)c1csc(NC(=O)Nc2ccc(Cl)c(F)c2)n1 (stereo not drawn)
pKd [3]: 4.87

O=C(O)Cc1cccc(-n2nc(C3CCCC3)cc2NC(=O)Nc2nc(CCOCc3ccccc3)cs2)c1
pKd [3]: 6.24

CCOC(=O)Cc1ccc(-n2nc(C(C)(C)C)cc2NC(=O)Nc2nccs2)cc1
pIC50 [6]: 5.22 | pKd [3]: 6.17 | pIC50 [4]: 6.19

Cc1ccc(-n2nc(C(C)(C)C)cc2NC(=O)Nc2nccs2)cc1
pKd [3]: 6.00

Cc1ccc(-n2nc(C(C)(C)C)cc2NC(=O)Nc2nc(CCOCc3ccccc3)cs2)cc1
pKd [3]: 6.42

Cc1ccc(-n2nc(C(C)(C)C)cc2NC(=O)Nc2nc(CCOCc3ccc(F)cc3)cs2)cc1
pKd [3]: 6.52

CC(C)(C)c1cc(NC(=O)Nc2nc(CCOCc3ccccc3)cs2)n(-c2cccc(CC(=O)O)c2)n1
pKd [3]: 6.04

O=C(O)Cc1cccc(-n2nc(C3CC3)cc2NC(=O)Nc2nc(CCOCc3ccccc3)cs2)c1
pKd [3]: 4.83

O=C(O)Cc1ccc(-n2nc(C3CCCC3)cc2NC(=O)Nc2nc(CCOCc3ccccc3)cs2)cc1
pKd [3]: 6.05
